#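 Compound exposure: 48 hours, 5 concentrations, 96-well plates. Here, GI50 denotes the concentration required for 50% inhibition of growth. Definition used: TGI = concentration required for complete inhibition of growth.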
# Assays:
# Test in all cases: growth of human tumour cells (NCI), 48 h
# A549 NSCLC = system: A549 NSCLC
# SK-MEL-28 melanoma = system: SK-MEL-28 melanoma
# CCRF-CEM leukemia = system: CCRF-CEM leukemia
# MCF7 breast = system: MCF7 breast
# PC-3 prostate = system: PC-3 prostate
# MOLT-4 leukemia = system: MOLT-4 leukemia
# SF-539 CNS = system: SF-539 CNS
# RPMI-8226 leukemia = system: RPMI-8226 leukemia
# HS 578T breast = system: HS 578T breast
# HCC-2998 colon = system: HCC-2998 colon
# HT29 colon = system: HT29 colon
# UACC-62 melanoma = system: UACC-62 melanoma
# SW-620 colon = system: SW-620 colon
# NCI-H522 lung = system: NCI-H522 lung
# SNB-75 CNS = system: SNB-75 CNS
# RXF 393 renal = system: RXF 393 renal
# TK-10 renal = system: TK-10 renal
# 786-0 renal = system: 786-0 renal
# NCI-H460 lung = system: NCI-H460 lung
# U251 CNS = system: U251 CNS
# SF-295 CNS = system: SF-295 CNS
# HOP-92 NSCLC = system: HOP-92 NSCLC
# OVCAR-4 ovarian = system: OVCAR-4 ovarian
# HCT-15 colon = system: HCT-15 colon
# A498 renal = system: A498 renal
# MALME-3M melanoma = system: MALME-3M melanoma
# SN12C renal = system: SN12C renal
# IGROV1 ovarian = system: IGROV1 ovarian
# T-47D breast = system: T-47D breast
# K-562 leukemia = system: K-562 leukemia
# MDA-MB-231 breast = system: MDA-MB-231 breast
# SK-MEL-5 melanoma = system: SK-MEL-5 melanoma
# LOX IMVI melanoma = system: LOX IMVI melanoma
# NCI-H226 lung = system: NCI-H226 lung
# SF-268 CNS = system: SF-268 CNS
# NCI/ADR-RES ovarian = system: NCI/ADR-RES ovarian
# SK-MEL-2 melanoma = system: SK-MEL-2 melanoma
# SNB-19 CNS = system: SNB-19 CNS
# DU-145 prostate = system: DU-145 prostate
# EKVX NSCLC = system: EKVX NSCLC
# OVCAR-5 ovarian = system: OVCAR-5 ovarian
# OVCAR-8 ovarian = system: OVCAR-8 ovarian
# UACC-257 melanoma = system: UACC-257 melanoma
# M14 melanoma = system: M14 melanoma
# KM12 colon = system: KM12 colon
# HOP-62 NSCLC = system: HOP-62 NSCLC
# SR leukemia = system: SR leukemia
# ACHN renal = system: ACHN renal
# UO-31 renal = system: UO-31 renal
# CAKI-1 renal = system: CAKI-1 renal
# HCT-116 colon = system: HCT-116 colon
# BT-549 breast = system: BT-549 breast
# SK-OV-3 ovarian = system: SK-OV-3 ovarian
# OVCAR-3 ovarian = system: OVCAR-3 ovarian
# NCI-H23 lung = system: NCI-H23 lung
# COLO 205 colon = system: COLO 205 colon
# HL-60(TB) leukemia = system: HL-60(TB) leukemia
# MDA-MB-435 = system: MDA-MB-435
compound,measurement,setting,value
CCN(CC)c1ccc(/C=N/NC(=O)c2ccc(S(C)(=O)=O)cc2)c(O)c1,GI50,A549 NSCLC,542 nM
same,TGI,A549 NSCLC,> 100000 nM
same,GI50,SK-MEL-28 melanoma,362 nM
same,TGI,SK-MEL-28 melanoma,> 100000 nM
same,GI50,CCRF-CEM leukemia,82.5 nM
same,TGI,CCRF-CEM leukemia,> 100000 nM
same,GI50,MCF7 breast,300 nM
same,TGI,MCF7 breast,> 100000 nM
same,GI50,PC-3 prostate,409 nM
same,TGI,PC-3 prostate,> 100000 nM
same,GI50,MOLT-4 leukemia,253 nM
same,TGI,MOLT-4 leukemia,> 100000 nM
same,GI50,SF-539 CNS,287 nM
same,TGI,SF-539 CNS,12000 nM
same,GI50,RPMI-8226 leukemia,399 nM
same,TGI,RPMI-8226 leukemia,> 100000 nM
same,GI50,HS 578T breast,6440 nM
same,TGI,HS 578T breast,> 100000 nM
same,GI50,HCC-2998 colon,292 nM
same,TGI,HCC-2998 colon,> 100000 nM
same,GI50,HT29 colon,469 nM
same,TGI,HT29 colon,> 100000 nM
same,GI50,UACC-62 melanoma,306 nM
same,TGI,UACC-62 melanoma,15100 nM
same,GI50,SW-620 colon,438 nM
same,TGI,SW-620 colon,> 100000 nM
same,GI50,NCI-H522 lung,455 nM
same,TGI,NCI-H522 lung,> 100000 nM
same,GI50,SNB-75 CNS,292 nM
same,TGI,SNB-75 CNS,> 29300 nM
same,GI50,RXF 393 renal,452 nM
same,TGI,RXF 393 renal,> 62100 nM
same,GI50,TK-10 renal,356 nM
same,TGI,TK-10 renal,> 100000 nM
same,GI50,786-0 renal,246 nM
same,TGI,786-0 renal,> 100000 nM
same,GI50,NCI-H460 lung,179 nM
same,TGI,NCI-H460 lung,16000 nM
same,GI50,U251 CNS,238 nM
same,TGI,U251 CNS,> 41000 nM
same,GI50,SF-295 CNS,259 nM
same,TGI,SF-295 CNS,> 100000 nM
same,GI50,HOP-92 NSCLC,439 nM
same,TGI,HOP-92 NSCLC,32900 nM
same,GI50,OVCAR-4 ovarian,139 nM
same,TGI,OVCAR-4 ovarian,> 80300 nM
same,GI50,HCT-15 colon,120 nM
same,TGI,HCT-15 colon,> 100000 nM
same,GI50,A498 renal,4980 nM
same,TGI,A498 renal,> 100000 nM
same,GI50,MALME-3M melanoma,491 nM
same,TGI,MALME-3M melanoma,> 82400 nM
same,GI50,SN12C renal,415 nM
same,TGI,SN12C renal,> 100000 nM
same,GI50,IGROV1 ovarian,292 nM
same,TGI,IGROV1 ovarian,> 100000 nM
same,GI50,T-47D breast,444 nM
same,TGI,T-47D breast,> 100000 nM
same,GI50,K-562 leukemia,900 nM
same,TGI,K-562 leukemia,> 100000 nM
same,GI50,MDA-MB-231 breast,347 nM
same,TGI,MDA-MB-231 breast,> 100000 nM
same,GI50,SK-MEL-5 melanoma,330 nM
same,TGI,SK-MEL-5 melanoma,2490 nM
same,GI50,LOX IMVI melanoma,150 nM
same,TGI,LOX IMVI melanoma,2760 nM
same,GI50,NCI-H226 lung,174 nM
same,TGI,NCI-H226 lung,5190 nM
same,GI50,SF-268 CNS,167 nM
same,TGI,SF-268 CNS,> 100000 nM
same,GI50,NCI/ADR-RES ovarian,467 nM
same,TGI,NCI/ADR-RES ovarian,> 44400 nM
same,GI50,SK-MEL-2 melanoma,777 nM
same,TGI,SK-MEL-2 melanoma,> 100000 nM
same,GI50,SNB-19 CNS,560 nM
same,TGI,SNB-19 CNS,> 100000 nM
same,GI50,DU-145 prostate,308 nM
same,TGI,DU-145 prostate,> 100000 nM
same,GI50,EKVX NSCLC,222 nM
same,TGI,EKVX NSCLC,> 100000 nM
same,GI50,OVCAR-5 ovarian,2860 nM
same,TGI,OVCAR-5 ovarian,> 100000 nM
same,GI50,OVCAR-8 ovarian,320 nM
same,TGI,OVCAR-8 ovarian,> 69500 nM
same,GI50,UACC-257 melanoma,340 nM
same,TGI,UACC-257 melanoma,5600 nM
same,GI50,M14 melanoma,210 nM
same,TGI,M14 melanoma,2450 nM
same,GI50,KM12 colon,418 nM
same,TGI,KM12 colon,> 100000 nM
same,GI50,HOP-62 NSCLC,156 nM
same,TGI,HOP-62 NSCLC,> 57900 nM
same,GI50,SR leukemia,97.2 nM
same,TGI,SR leukemia,> 100000 nM
same,GI50,ACHN renal,179 nM
same,TGI,ACHN renal,> 100000 nM
same,GI50,UO-31 renal,200 nM
same,TGI,UO-31 renal,3490 nM
same,GI50,CAKI-1 renal,199 nM
same,TGI,CAKI-1 renal,> 100000 nM
same,GI50,HCT-116 colon,186 nM
same,TGI,HCT-116 colon,> 100000 nM
same,GI50,BT-549 breast,596 nM
same,TGI,BT-549 breast,> 39900 nM
same,GI50,SK-OV-3 ovarian,251 nM
same,TGI,SK-OV-3 ovarian,57800 nM
same,GI50,OVCAR-3 ovarian,177 nM
same,TGI,OVCAR-3 ovarian,> 100000 nM
same,GI50,NCI-H23 lung,537 nM
same,TGI,NCI-H23 lung,> 100000 nM
same,GI50,COLO 205 colon,297 nM
same,TGI,COLO 205 colon,> 100000 nM
same,GI50,HL-60(TB) leukemia,288 nM
same,TGI,HL-60(TB) leukemia,3010 nM
same,GI50,MDA-MB-435,605 nM
same,TGI,MDA-MB-435,> 100000 nM

# From PubChem BioAssay (NCI)
